Assay [1] has as its target T1, LasR (Pseudomonas aeruginosa, UniProt P25084).
T1 construct: LasR-LBD
Kind of assay: microscale thermophoresis (no fluorescence signal in thermal shift assay). Type of assay: binding.

In assay [2] the target is T1, LasR. Kind of assay: microscale thermophoresis. In kind it is binding.

In general, Kd refers to the concentration at which binding is half-saturated.

T1 sequence (P25084 1-173): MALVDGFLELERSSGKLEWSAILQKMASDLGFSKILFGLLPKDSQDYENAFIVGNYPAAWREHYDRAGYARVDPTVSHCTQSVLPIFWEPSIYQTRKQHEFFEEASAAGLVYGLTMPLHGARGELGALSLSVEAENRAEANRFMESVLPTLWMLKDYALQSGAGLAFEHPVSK

As for `O=C(/C=C/c1ccc(O)c(O)c1)c1ccc(O)cc1O` [B, Butein], the Kd on LasR [1] worked out at 3.48 ± 1.63 µM.

On to `O=C1C=C(Br)/C(=C/Br)O1` [C30, (Z-)-4-Bromo-5-(bromomethylene)-2(5H)-furanone], for which the affinity at LasR [2], expressed as Kd, was 20.4 ± 16 µM.

The values above are taken from paper PMC7140002, “Attenuation of Pseudomonas aeruginosa Quorum Sensing by Natural Products: Virtual Screening, Evaluation and Biomolecular Interactions” (International Journal of Molecular Sciences, 2020).
